{"source": "patent US6835742B2", "about": "“Synergistic effect of amlodipine and atorvastatin on cholesterol crystal formation inhibition and aortic endothelial cell nitric oxide release” (priority 2000, dated 2004)", "key": {"[1]": {"experiment": "Small angle x-ray diffraction of cholesterol-enriched reconstituted membranes (cholesterol domain formation)", "format": "physicochemical", "conditions": "for d-space of surrounding sterol-poor membrane region: 5° C., 74% relative humidity"}, "coronary artery disease": {"tested_on": "coronary artery disease", "conditions": "cited from earlier work"}, "stable and advanced CAD": {"tested_on": "stable and advanced CAD", "conditions": "compared to angioplasty with usual medical care; cited from earlier work"}, "[2]": {"tested_on": "rabbit aorta endothelial cell", "experiment": "NO release from a single rabbit aorta endothelial cell (porphyrinic sensor)", "format": "cell-based", "conditions": "after injection of atorvastatin; 37° C.", "description": "NO release measurements. All measurements presented were recorded in vitro. NO release was measured directly from a single endothelial cell in the rabbit aorta. Measurements were done in Hank's balance solution at 37° C. […] The sensor operated with a three-electrode system [sensor working electrode, platinum wire (0.1 mm) counter electrode, and saturated calomel electrode (SCE—reference electrode)]. The three electrodes were connected to a potentiostat/galvanostat PAR273. Data were acquired with the use of an IBM computer with custom software. […] SCE. The release of NO was initiated by the injection of potential agonists of endothelial NO synthase (eNOS) using a temtoinjector placed in the controlled distance from the endothelial cell. Two different agonists were tested: amlodipine and atorvastatin. The different concentrations of these two compounds applied simultaneously were also tested."}, "[3]": {"conditions": "1.1:1 cholesterol to phospholipid mole ratio, 5° C. (FIG. 5)"}, "[4]": {"conditions": "1.2:1 cholesterol to phospholipid mole ratio, 5° C. (FIG. 4)"}, "[5]": {"conditions": "1.2:1 cholesterol to phospholipid mole ratio"}}, "data": [{"molecule": "CCOC(=O)C1=C(COCCN)NC(C)=C(C(=O)OC)C1c1ccccc1Cl", "note": "(centres unmarked) [AML, Amlodipine besylate]", "values": [{"measurement": "effect on cholesterol domain formation", "setting": "[1]; [3]", "result": "no effect on domain formation"}, {"measurement": "effect on cholesterol domain formation", "setting": "[1]; [4]", "result": "did not interfere with domain formation"}, {"measurement": "d-space of surrounding sterol-poor membrane region", "setting": "[1]; [5]", "result": 57.8, "unit": "Å"}, {"measurement": "progression of carotid atherosclerosis", "setting": "coronary artery disease; B-mode ultrasonographic assessments", "result": "significant slowing"}, {"measurement": "reduction in documented angina", "setting": "coronary artery disease; compared to placebo", "result": 33, "unit": "%"}, {"measurement": "reduction in the need for revascularization", "setting": "coronary artery disease; compared to placebo", "result": 42, "unit": "%"}]}, {"molecule": "CC(C)c1c(C(=O)Nc2ccccc2)c(-c2ccccc2)c(-c2ccc(F)cc2)n1CC[C@@H](O)C[C@@H](O)CC(=O)[O-].CC(C)c1c(C(=O)Nc2ccccc2)c(-c2ccccc2)c(-c2ccc(F)cc2)n1CC[C@@H](O)C[C@@H](O)CC(=O)[O-].[Ca+2]", "note": "[AT, atorvastatin calcium]", "values": [{"measurement": "effect on cholesterol domain formation", "setting": "[1]; [3]", "result": "no effect on domain formation"}, {"measurement": "d-space of surrounding sterol-poor membrane region", "setting": "[1]; 1.1:1 cholesterol to phospholipid mole ratio", "result": 55.8, "unit": "Å"}, {"measurement": "effect on cholesterol domain formation", "setting": "[1]; [4]", "result": "did not interfere with domain formation"}, {"measurement": "d-space of surrounding sterol-poor membrane region", "setting": "[1]; [5]", "result": 56.8, "unit": "Å"}, {"measurement": "reduction of overall incidence of cardiovascular events", "setting": "stable and advanced CAD", "result": 36, "unit": "%"}, {"measurement": "time to a first ischemic event", "setting": "stable and advanced CAD", "result": "significantly delayed"}, {"measurement": "maximum NO concentration released", "setting": "[2]", "result": "20 ± 5", "unit": "nmol/L"}]}, {"molecule": "COc1ccc(CCN(C)CCCC(C#N)(c2ccc(OC)c(OC)c2)C(C)C)cc1OC", "note": "(centres unmarked) [verapamil]", "values": [{"measurement": "width of cholesterol monohydrate crystalline domains", "setting": "[1]; samples containing verapamil, unaffected by temperature (93% relative humidity) or relative humidity (20° C.)", "result": 34.0, "unit": "Å"}]}]}
